The values below are quoted from earlier work in paper PMC8225628, “Bispecific repurposed medicines targeting the viral and immunological arms of COVID-19” (Scientific Reports, 2021).

Molecules are shown by their SMILES.

A word on the IC50: it is the concentration that gives 50% inhibition.

On the set-up of data set [1]: method as in PMID 32726803. The settings on record: cited from earlier work.
On the set-up of data set [2]: method as in PMID 32726803. The following applies: cited from earlier work. The source holds these as a separate data set.
The subject of data set [3] is PL^pro. Details: method as in PMID 32726803. The settings on record: read-out: Biochemical IC50; cited from earlier work.
On the set-up of data set [4]: method as in PMID 32726803. The following applies: read-out: FFU IC50; cited from earlier work.

As to `Cc1ccc(N)cc1C(=O)N[C@H](C)c1cccc2ccccc12` [GRL-0617], the “Viral RNA detection potency” value in data set [1] is > 50 µM. Further, the Cytopathic-effect potency in data set [2] is on record as 30 µM. Further, the IC50 in data set [3] was […]; in data set [4] it was > 100 µM.
